Test results reported in ChEMBL document CHEMBL3045277, “Synthesis and biological activity of novel 1H-1,4-diazepines containing benzene sulfonyl piperazine moiety” (2011).

Columns and labels:
Type in all cases: functional
[1] = test system: Klebsiella pneumoniae; assay: Antibacterial activity against Klebsiella pneumoniae by cup-plate method
[2] = test system: Staphylococcus aureus; assay: Antibacterial activity against Staphylococcus aureus by cup-plate method
[3] = test system: Aspergillus niger; assay: Antifungal activity against Aspergillus niger by cup-plate method
[4] = test system: Metaphire posthuma; assay: Antihelminthic activity against Metaphire posthuma assessed as time of occurrence of death
[5] = test system: Candida albicans; assay: Antifungal activity against Candida albicans by cup-plate method
[6] = test system: Metaphire posthuma; assay: Antihelminthic activity against Metaphire posthuma assessed as time of occurrence of paralysis

| SMILES | inhibition zone (IZ) [1] [mm] | inhibition zone (IZ) [2] [mm] | inhibition zone (IZ) [3] [mm] | Time [4] [min] | inhibition zone (IZ) [5] [mm] | Time [6] [min] |
| --- | --- | --- | --- | --- | --- | --- |
| O=C(O)c1cn(C2CC2)c2cc(N3CCNCC3)c(F)cc2c1=O [CIPROFLOXACIN] | 26 | 24 |  |  |  |  |
| CC(=O)Nc1ccc(S(=O)(=O)N2CCN(CCCC3C(C)=NCCN=C3C)CC2)cc1 | 21 | 19 | 19 | 103 | 21 | 92 |
| CC(=O)Nc1ccc(S(=O)(=O)N2CCN(CCCC3C(C)=NCCN=C3c3ccccc3)CC2)cc1 (stereo unspecified) | 19 | 20 | 20 | 111 | 20 | 91 |
| CC(=O)Nc1ccc(S(=O)(=O)N2CCN(CCCC3C(=O)NCCN=C3C)CC2)cc1 (stereo unspecified) | 17 | 16 | 17 | 119 | 16 | 102 |
| CC(=O)Nc1ccc(S(=O)(=O)N2CCN(CCCC3C(=O)NCCNC3=O)CC2)cc1 | 15 | 13 | 15 | 122 | 13 | 103 |
| C1CNCCN1.C1CNCCN1.C1CNCCN1.O.O=C(O)CC(O)(CC(=O)O)C(=O)O.O=C(O)CC(O)(CC(=O)O)C(=O)O [PIPERAZINE CITRATE] |  |  |  | 125 |  | 100 |
| Cc1cc(C2CCCCC2)n(O)c(=O)c1.NCCO [CICLOPIROX OLAMINE] |  |  | 22 |  | 24 |  |
| CC(=O)Nc1ccc(S(=O)(=O)N2CCN(CCCC3C(c4ccccc4)=NCCN=C3c3ccccc3)CC2)cc1 | 19 | 17 | 18 | 110 | 19 | 93 |
